Experimental data as given in patent EP3598902A1, “VITAMIN B2 AND ITS USE” (Société des Produits Nestlé S.A., priority 2014, dated 2016).

Test system: L6 differentiated muscle cells
Assay: glucose uptake (radiolabelled 2-deoxy-D-[1,2 3H] glucose) in differentiated muscle cells, absence of insulin
Type: cell-based
Conditions: ingredient G 1 µM, ingredient K 10 nM, versus control or basal condition
Experimental: Ingredient G refers to vitamin B2, ingredient k refers to 1,25-dihydroxyvitamin D3, and ingredient J refers to zinc chloride.
Ingredient G was tested at 1 µM. Ingredient K was tested at 10 nM, and ingredient J was tested at 20 µM.
Each ingredient was tested in triplicate.

Cc1cc2nc3c(=O)[nH]c(=O)nc-3n(C[C@H](O)[C@H](O)[C@H](O)CO)c2cc1C [ingredient G, vitamin B2]
glucose uptake (long term incubation (24 hrs)): increases in glucose uptake were observed
glucose uptake (short term incubation (2 hrs), ingredient J 20 µM): increases in glucose uptake were observed
